Laboratory results reported in patent US20260174867A1, “REDUCTION OF ADIPOSE TISSUE” (LEIOS THERAPEUTICS, INC., priority 2023, published 2026).

Key:
inguinal fat pad = assay: Inguinal fat pad mass after a single treatment of polidocanol; type: in vivo; settings: for reduction in inguinal fat pad mass: day 28 after a single treatment
Procedure: For example, reductions in inguinal fat pad mass of 15% were found at day 28 after a single treatment of polidocanol at doses of 0.5% and 1.25%. […] Thus, in embodiments, the polidocanol is administered approximately once per month and/or at concentrations less than about 2.0%. The treatment may employ about 0.1 to 0.3 mL (e.g. 0.2 mL) of a polidocanol at a concentration provided herein. In embodiments, the polidocanol is a concentration of from about 0.5% and 1.25%. The administration may be via injection. In embodiments, the injection is at a spacing of about 0.2 to 0.8 cm apart across the inguinal fat pad. Thus, in embodiments, the polidocanol is administered approximately once per month and/or at concentrations less than 2.0%. The treatment may employ 0.1 to 0.3 mL (e.g., 0.2 mL) of a polidocanol at a concentration provided herein. In embodiments, the polidocanol is a concentration of from 0.5% and 1.25%. The administration may be via injection. In embodiments, the injection is at a spacing of 0.2 to 0.8 cm apart across the inguinal fat pad. In embodiments, the injection is at a spacing of about 0.5 cm apart across the inguinal fat pad.

human subjects = settings: cited from earlier work
fat tissue = assay: Propylene glycol as co-solvent injected with polidocanol; type: in vivo
[1] = Kybella Label, spontaneous and elicited AEs, 1-week post-injection

Compound: polidocanol
- reduction in inguinal fat pad mass (inguinal fat pad; concentration 2.0%): 10%
- reduction in inguinal fat pad mass (inguinal fat pad; dose 0.5%): 15%
- reduction in inguinal fat pad mass (inguinal fat pad; dose 1.25%): 15%
- visible change of inguinal fat pad / body contour (inguinal fat pad; in vivo): externally visible reduction in inguinal fat pad fullness

Compound: C[C@H](CCC(=O)O)[C@H]1CC[C@H]2[C@@H]3CC[C@@H]4C[C@H](O)CC[C@]4(C)[C@H]3C[C@H](O)[C@]12C [Kybella, deoxycholic acid]
- AE Proportions Post Treatment: Anesthesia (Numbness) (human subjects; [1]): 66%
- AE Proportions Post Treatment: Bruising (human subjects; [1]): 72%
- AE Proportions Post Treatment: Edema/Swelling (human subjects; [1]): 87%
- AE Proportions Post Treatment: Erythema (human subjects; [1]): 27%
- AE Proportions Post Treatment: Induration (human subjects; [1]): 23%
- AE Proportions Post Treatment: Nerve Injury (human subjects; [1]): 4%
- AE Proportions Post Treatment: Nodule (human subjects; [1]): 13%
- AE Proportions Post Treatment: Pain (human subjects; [1]): 70%
- AE Proportions Post Treatment: Paresthesia (human subjects; [1]): 14%
- AE Proportions Post Treatment: Pruritis (human subjects; [1]): 12%
- Injection site adverse events lasting >30 days: Edema/Swelling (human subjects; Kybella Label): 20%
- Injection site adverse events lasting >30 days: Induration (human subjects; Kybella Label): 13%
- Injection site adverse events lasting >30 days: Injection Site Pain (human subjects; Kybella Label): 16%
- Injection site adverse events lasting >30 days: Numbness (human subjects; Kybella Label): 42%
- injection-site adverse events (swelling/edema, bruising, pain) per treatment session (human subjects; compared to placebo, FIGS. 9A and 9B): significantly higher percentage of subjects exhibited an adverse reaction
- of said subjects, injection related side effect which lasts for more than 30 days (human subjects; subcutaneous injection): up to 42%
- subjects exhibiting an injection related side effect (human subjects; subcutaneous injection): ≤ 87%

Compound: CC(O)CO (centres unmarked) [propylene glycol]
- irritation when injected with polidocanol (fat tissue): non-irritating
- patchy and incomplete fat tissue necrosis relative to the absence of co-solvent (fat tissue): reduced amount of patchy and incomplete fat tissue necrosis
